The values below come from patent US11535670B2, “Combination therapies of HDAC inhibitors and PD-L1 inhibitors” (HUYABIO International, LLC, priority 2016, dated 2022).

In assay [1] the test system is MC38 murine colon carcinoma. The assay is described as follows: Example 1: tumor growth delay in MC38 syngeneic model, HBI-8000 at two doses alone and with PD-L1 inhibitor antibody. The class given is in vivo, C57BL/6 mice. To be noted: for Median TTE: endpoint 1000 mm^3 or Day 47; for % TGD: versus vehicle. On the procedure:
In Example 1 HBI-8000 was tested in two doses as monotherapy and in two doses in combination with PD-L1 inhibitor antibody at 5 mg/kg. The experiment included a vehicle-treated group and a PD-L1 inhibitor antibody monotherapy group, which served as control groups for analysis of efficacy. Tumors were measured twice per week until the study was ended on Day 47. Each animal was euthanized when its tumor attained the endpoint tumor volume of 1000 mm^3 or on the final day of the study, whichever came first, and the time to endpoint (TTE) for each mouse was calculated. Treatment response was determined from an analysis of percent tumor growth delay (% TGD), defined as the percent increase in the median time to endpoint (TTE) for treated versus control mice; and by logrank significance of differences in survival among groups and regression responses.
Mice: Female C57BL/6 mice (Charles River Laboratories) were eight weeks old, with a body weight (BW) range of 15.4 to 22.0 grams on Day 1 of the study. The animals were fed ad libitum water (reverse osmosis, 1 ppm Cl), and NIH 31 Modified and Irradiated Lab Diet® consisting of 18.0% crude protein, 5.0% crude fat, and 5.0% crude fiber. The mice were housed on irradiated Enrich-o′cobs™ Laboratory Animal Bedding in static microisolators on a 12-hour light cycle at 20-22° C. (68-72° F.) and 40-60% humidity.
Tumor Cell Culture: MC38 murine colon carcinoma cells were maintained in Dulbecco's Modified Eagle Medium (DMEM) supplemented with 10% fetal bovine serum and 2 mM glutamine, 100 units/mL penicillin G sodium, 100 μg/mL streptomycin sulfate, and 25 μg/mL gentamicin. Cell cultures were maintained in tissue culture flasks in a humidified incubator at 37° C., in an atmosphere of 5% CO2 and 95% air.
Tumor Implantation: Cells were harvested during exponential growth, and resuspended in cold DMEM. Each mouse was inoculated subcutaneously in the right flank with 1×10^6 cells (0.1 mL of cell suspension). Tumors were calipered in two dimensions to monitor growth as their mean volume approached the desired 100-150 mm^3 range. Tumor burden was calculated using the formula:
[formula] • where w=width and l=length, in mm, of the tumor. Tumor weight may be estimated with the assumption that 1 mg is equivalent to 1 mm^3 of tumor volume. […]
Tumor Growth Delay: Tumors were measured using calipers twice per week, and each animal was euthanized when its tumor reached a volume of 1000 mm^3 or at the end of the study (D47), whichever came first. […] The time to endpoint (TTE) for analysis was calculated for each mouse by the following equation: […]

Another assay concerns the target T1, HDAC 8 (Homo sapiens, UniProt Q9BY41).
T1 sequence (Q9BY41 1-377): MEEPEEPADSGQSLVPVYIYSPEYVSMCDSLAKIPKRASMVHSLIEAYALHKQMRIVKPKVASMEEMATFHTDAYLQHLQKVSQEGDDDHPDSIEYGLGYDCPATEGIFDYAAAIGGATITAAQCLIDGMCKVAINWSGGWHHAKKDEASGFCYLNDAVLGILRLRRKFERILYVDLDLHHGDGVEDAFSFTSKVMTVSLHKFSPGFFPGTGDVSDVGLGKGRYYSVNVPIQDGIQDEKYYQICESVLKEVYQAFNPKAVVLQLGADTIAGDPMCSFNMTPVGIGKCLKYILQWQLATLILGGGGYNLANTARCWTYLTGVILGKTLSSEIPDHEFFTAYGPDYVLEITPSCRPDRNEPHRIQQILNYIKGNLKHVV
The following applies: cited from earlier work.

The next assay addresses HDAC 2 (Homo sapiens, UniProt Q92769). To be noted: cited from earlier work.
Where [2] appears, read: HBI-8000 20 mg/kg p.o. qd×21, alone or plus anti-PDL-1 5 mg/kg i.p. biwk×3.
Where [3] appears, read: HBI-8000 50 mg/kg p.o. qd×21, alone or plus anti-PDL-1 5 mg/kg i.p. biwk×3.

Chain of HDAC 2 (Q92769 whole entry): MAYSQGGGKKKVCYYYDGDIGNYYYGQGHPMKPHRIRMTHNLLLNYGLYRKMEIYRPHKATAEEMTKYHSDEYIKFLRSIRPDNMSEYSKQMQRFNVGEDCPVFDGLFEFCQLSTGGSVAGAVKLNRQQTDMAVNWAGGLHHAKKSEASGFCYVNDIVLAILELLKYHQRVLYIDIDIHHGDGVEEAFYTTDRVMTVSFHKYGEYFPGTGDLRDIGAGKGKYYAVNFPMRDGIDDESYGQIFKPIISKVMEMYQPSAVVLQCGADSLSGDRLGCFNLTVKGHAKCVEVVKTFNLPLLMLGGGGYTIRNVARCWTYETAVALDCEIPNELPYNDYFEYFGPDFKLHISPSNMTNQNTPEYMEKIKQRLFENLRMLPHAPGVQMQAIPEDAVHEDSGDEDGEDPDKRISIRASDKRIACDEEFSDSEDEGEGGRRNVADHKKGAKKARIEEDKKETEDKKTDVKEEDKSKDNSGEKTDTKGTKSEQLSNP

Turning to `Nc1cc(F)ccc1NC(=O)c1ccc(CNC(=O)/C=C/c2cccnc2)cc1` [HBI-8000, N-(2-amino-4-fluorophenyl)-4-[[[(2E)-1-oxo-3-(3-pyridinyl)-2-propen-1-yl]amino]methyl]benzamide], in assay [1] (setting [2]), the “Median TTE” value was 18.9 days and the “% TGD” value is −8%. In assay [1] (setting [3]), the “Median TTE” value is 22.8 days and the “% TGD” value was 11%. Besides, the “activity at HDAC 8” value at HDAC 8 is reported as “has activity”. The “activity at HDAC 8 compared with Entinostat” value at HDAC 8 (versus Entinostat) is on record as “more active than Entinostat”. Besides, at HDAC 2, the “inhibition of HDAC 2” value is “low nanomolar concentrations”. The “activity at HDAC 2 compared with Entinostat” value at HDAC 2 (versus Entinostat) is “more active than Entinostat”.
